According to patent US11059795B2, “Androgen receptor modulators and methods for their use” (ESSA Pharma, Inc., priority 2018, dated 2021):

How the values were obtained:
androgen receptor (AR) = molecular target: T1, androgen receptor (AR) (Homo sapiens, UniProt P10275, T878A); experiment: Androgen-induced PSA (6.1 kb)-luciferase reporter assay in LNCaP cells; type: cell-based; settings: LNCaP cells transfected with PSA (6.1 kb)-luciferase reporter, R1881 1 nM, 24 h; read-out: PSA-Luc IC50 Range
T1 construct: LNCaP cells were transiently transfected with the PSA (6.1 kb)-luciferase reporter for 24 h; endogenous in cells; host or cells: LNCaP
T1 sequence (P10275 1-920 T878A): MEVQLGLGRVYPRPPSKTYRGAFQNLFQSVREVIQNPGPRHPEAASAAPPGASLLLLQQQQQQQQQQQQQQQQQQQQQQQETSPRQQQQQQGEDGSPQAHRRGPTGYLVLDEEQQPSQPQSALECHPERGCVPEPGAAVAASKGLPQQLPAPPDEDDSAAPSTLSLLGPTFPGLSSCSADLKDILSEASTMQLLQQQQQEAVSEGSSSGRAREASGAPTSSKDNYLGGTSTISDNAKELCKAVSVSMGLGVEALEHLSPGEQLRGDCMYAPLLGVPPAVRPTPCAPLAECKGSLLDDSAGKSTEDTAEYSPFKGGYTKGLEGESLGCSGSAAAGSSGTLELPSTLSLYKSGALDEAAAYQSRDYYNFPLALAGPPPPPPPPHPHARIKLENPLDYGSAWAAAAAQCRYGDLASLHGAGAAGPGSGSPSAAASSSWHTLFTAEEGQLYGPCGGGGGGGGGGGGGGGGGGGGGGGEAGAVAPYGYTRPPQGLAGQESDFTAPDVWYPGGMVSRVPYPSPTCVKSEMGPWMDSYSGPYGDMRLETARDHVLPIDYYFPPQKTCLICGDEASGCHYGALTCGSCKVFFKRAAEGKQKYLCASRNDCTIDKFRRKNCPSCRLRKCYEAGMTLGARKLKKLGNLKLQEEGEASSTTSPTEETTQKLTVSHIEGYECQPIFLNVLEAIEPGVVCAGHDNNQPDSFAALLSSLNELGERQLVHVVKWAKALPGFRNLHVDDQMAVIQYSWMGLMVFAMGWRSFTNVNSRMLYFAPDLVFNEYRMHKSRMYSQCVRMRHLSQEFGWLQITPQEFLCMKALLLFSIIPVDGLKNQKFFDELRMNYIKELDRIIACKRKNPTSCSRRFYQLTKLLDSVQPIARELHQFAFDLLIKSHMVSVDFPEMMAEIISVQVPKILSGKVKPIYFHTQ
How it was run: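 Read-out is firefly luminescence (10 s) in LNCaP lysates, normalized to protein, from an ARE-containing PSA (6.1 kb)-luciferase reporter driven by androgen.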

[1] = Microsomal stability assay, mouse liver microsomes; type: in vitro ADME; settings: mouse, liver microsomes, pH 7.4, mouse liver microsomes, 1 μM compound, 0.5 mg/mL protein, 37° C.; read-out: MLM +30/− NADPH: Clint (μL/min/mg protein)
Experimental: Microsomal stability assay is a widely used in vitro model to characterize the metabolic conversion by phase I enzymes, such as cytochrome P450 (CYP) enzymes. Since metabolism is known to be highly variable in different species, microsomal stability assay is commonly run in multiple species. Metabolic stability of testing compound can be evaluated using human, rat, mouse, or other animal liver or intestine microsomes to predict intrinsic clearance.
The assay was carried out in 96-well microtiter plates at 37° C. Reaction mixtures (25 μL) contained a final concentration of 1 μM test compound, 0.5 mg/mL liver microsomes protein, and 1 mM NADPH and/or 1 mM UDPGA (with alamethicin) in 100 mM potassium phosphate, pH 7.4 buffer with 3 mM MgCl2. The incubation was done with N=1, but duplicate incubation at each time point can be prepared if necessary. At each of the time points (for example, 0, 15, 30, and 60 minutes), 150 μL of quench solution (100% acetonitrile with 0.1% formic acid) with internal standard was transferred to each well. Besides the zero minute controls, mixtures containing the same components except the NADPH can also be prepared as the negative control. Verapamil was included as a positive control to verify assay performance. Plates were sealed, vortexed, and centrifuged at 4° C. for 15 minutes at 4000 rpm. The supernatant is transferred to fresh plates for LC/MS/MS analysis.
Summarized conditions: [Compound]=[…], [LM]=0.5 mg/mL, [NADPH]=1 mM and/or [UDPGA]=1 mM, Buffer=100 mM Potassium Phosphate, pH 7.4 with 3 mM MgCl2, Time=0, 15, 30, and 60 min, and Temperature=37° C.
(§1) All samples were analyzed on LC/MS/MS using an AB Sciex API 4000 instrument, coupled to a Shimadzu LC-20AD LC Pump system. Analytical samples were separated using a Waters Atlantis T3 dC18 reverse phase HPLC column (20 mm×2.1 mm) at a flow rate of 0.5 mL/min. The mobile phase consisted of 0.1% formic acid in water (solvent A) and 0.1% formic acid in 100% acetonitrile (solvent B).
The extent of metabolism is calculated as the disappearance of the test compound, compared to the 0-min time incubation. Initial rates are calculated for the compound concentration and used to determine half-life (t½) values and subsequently, the intrinsic clearance (Clint). Clint=(0.693)(1/t½ (min))(g of liver/kg of body weight)(mL incubation/mg of microsomal protein)(45 mg of microsomal protein/g of liver weight)

[2] = Microsomal stability assay, human liver microsomes; type: in vitro ADME; settings: pH 7.4, 1 μM compound, 0.5 mg/mL protein, 37° C., read-out: HLM +/− NADPH: Clint (μL/min/mg protein)
How it was run: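 Compound at 1 μM was incubated at 37° C with 0.5 mg/mL liver microsomes and 1 mM NADPH and/or 1 mM UDPGA (with alamethicin) in 100 mM potassium phosphate pH 7.4, 3 mM MgCl2. Samples were taken at 0, 15, 30 and 60 min and measured by LC/MS/MS. t½ came from compound loss relative to 0 min, and Clint was scaled with 45 mg microsomal protein/g liver.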

[3] = Hepatocyte stability assay, mouse hepatocytes; type: in vitro ADME; settings: mouse, cryopreserved hepatocytes, 1 μM compound, 0.5 million cells/mL, 37° C., read-out: MH +/− NADPH: Clint (μL/min/million cells)
From the text: The […] of in vitro intrinsic clearance (Clint) for drug candidates in the early discovery stage is common practice in the pharmaceutical industry. The Clint values of drug candidates can help to confirm whether metabolism is the main clearance pathway when it is compared with the total body clearance in vivo. Hepatocytes are among the routinely used in vitro systems for measuring clearance. Hepatocytes have been reported to retain most of the phase I and phase II metabolic activities, and therefore, it is a useful tool to estimate the intrinsic clearance for potential drug candidates.
Metabolic stability of testing compound were be evaluated using human and mouse hepatocytes and can also be use rat, mouse, or other animal hepatocytes to predict intrinsic clearance. Cryopreserved hepatocytes were removed from the liquid nitrogen tank and thawed in a 37° C. water bath. As soon as the cells pulled away from the vial wall, they were decanted into 48 ml of warm HT medium. Cells were centrifuged for four minutes at 420 rpm (50 g). After removing the supernatant, pellet was re-suspended in warm DMEM medium. Cell density was counted by a hemacytometer.
The assay was carried out in 96-well microtiter plates. Compounds were incubated for 0, 60, 120, and 180 minutes at 37° C. with hepatocytes. Reaction mixtures (50 μL) contained a final concentration of 1 μM test compound, 0.5 million cells/mL hepatocytes in the DMEM medium. At each of the time points (for example, 0, 1, 2, and 3 hours), 200 μL of quench solution (100% acetonitrile with 0.1% formic acid) with internal standard was transferred to each well. Midazolam was included as a positive control to verify assay performance. Plates were sealed and centrifuged at 4° C. for 15 minutes at 4000 rpm. The supernatant is transferred to fresh plates for LC/MS/MS analysis.
Summarized conditions (customizable): [Compound]=[…], Positive control: midazolam and/or naloxone, [Hepatocyte]=0.5 million cells/Ml, time=0, 60, 120, and 180 min, t=37° C.
as §1
The extent of metabolism was calculated as the disappearance of the test compound, compared to the 0-min control reaction incubations. Initial rates were calculated for the compound concentration and used to determine t½ values and subsequently, the intrinsic clearance, Clint. Clint=(0.693)(1/t½(min))(mL incubation/million cells)

Row | SMILES | IC50 (androgen receptor (AR)) [nM] | microsomal CLint at 1 μM [1] [µL/min/mg] | microsomal CLint at 1 μM [2] [µL/min/mg] | hepatocyte CLint at 1 μM [3] [µL/min/1e6 cells]
1 | Cc1nc(S(C)(=O)=O)oc1COc1ccc(C(C)(C)c2cc(Cl)c(OCCCl)c(C#N)c2)cc1 [Compound A81] | < 500 | ≥ 48 | 12 to 48 | ≥ 18
2 | CC(Oc1ccc(C(C)(C)c2cc(Cl)c(OCCCl)c(C#N)c2)cc1)c1coc(S(C)(=O)=O)n1 (stereo not drawn) [Compound A85] | < 500 | ≥ 48 | < 12 | ≥ 18
3 | Cc1cc(C(C)(C)c2ccc(OCc3csc(S(C)(=O)=O)n3)cc2)cc(C#N)c1OCCCl [Compound A86] | < 500 | 12 to 48 | 12 to 48 | ≥ 18
4 | CC(Oc1ccc(C(C)(C)c2cc(Cl)c(OCCCl)c(C#N)c2)cc1)c1ocnc1S(C)(=O)=O (stereo not drawn) [Compound A87] | 500 to 2000 | 12 to 48 | < 12 | ≥ 18
5 | Cc1cc(C(C)(C)c2ccc(OC(C)c3ocnc3S(C)(=O)=O)cc2)cc(C#N)c1OCCCl (stereo not drawn) [Compound A88] | 500 to 2000 | ≥ 48 | ≥ 48 | ≥ 18
6 | Cc1cc(C(C)(C)c2ccc(OC(C)c3ncc(S(C)(=O)=O)o3)cc2)cc(C#N)c1OCCCl (stereo not drawn) [Compound A89] | 500 to 2000 | ≥ 48 | 12 to 48 | ≥ 18
7 | CC(Oc1ccc(C(C)(C)c2cc(Cl)c(OCCCl)c(C#N)c2)cc1)c1ncc(S(C)(=O)=O)o1 (stereo not drawn) [Compound A90] | 500 to 2000 | ≥ 48 | < 12 | ≥ 18
8 | CC(Oc1ccc(C(C)(C)c2cc(Cl)c(OCCCl)c(C#N)c2)cc1)c1coc(NS(C)(=O)=O)n1 (stereo not drawn) [Compound A91] | 500 to 2000 | < 12 | < 12 | 4 to 18
9 | CC(Oc1ccc(C(C)(C)c2cc(Cl)c(OCCCl)c(C#N)c2)cc1)c1cnc(NS(C)(=O)=O)o1 (stereo not drawn) [Compound A92] | < 500 | 12 to 48 | 12 to 48 | ≥ 18
10 | CC(C)(c1ccc(OCc2ncc(S(C)(=O)=O)[nH]2)cc1)c1cc(Cl)c(OCCCl)c(C#N)c1 [Compound A94] | 500 to 2000 | 12 to 48 | 12 to 48 | 4 to 18
11 | CC(Oc1ccc(C(C)(O)c2cc(Cl)c(OCCCl)c(C#N)c2)cc1)c1ocnc1S(C)(=O)=O (stereo not drawn) [Compound A95] | > 2000 | ≥ 48 | 12 to 48 | ≥ 18
12 | CC(C)(c1ccc(NC(=O)c2coc(S(C)(=O)=O)n2)cc1)c1cc(Cl)c(OCCCl)c(C#N)c1 [Compound A96] | > 2000 | ≥ 48 | ≥ 48 | ≥ 18
13 | CC(C)(c1ccc(OCc2ocnc2S(C)(=O)=O)cc1)c1cc(Cl)c(OCC(Cl)CO)c(Cl)c1 (stereo not drawn) [Compound A97] | < 500 | 12 to 48 | 12 to 48 | ≥ 18
14 | CC(Oc1ccc(C(C)(C)c2cc(Cl)c(OCCCl)c(C#N)c2)cc1)c1ccnc(NS(C)(=O)=O)n1 (stereo not drawn) [Compound A98] | 500 to 2000 | < 12 | < 12 | < 4
15 | Cc1nc(COc2ccc(C(C)(C)c3cc(Cl)c(OCCCl)c(C#N)c3)cc2)cc(NS(C)(=O)=O)n1 [Compound A99] | 500 to 2000 | 12 to 48 | < 12 | 4 to 18
